Test system: pigs
Assay: Intrapericardial administration of RTX alone or RTX in combination with QX-314 in anesthetized pigs; heart rate and blood pressure
Format: in vivo
Settings: 15 mL, RTX 12.5 µg/mL, QX-314 10, 20, 30 or 40 µM where combined, aspirated after 20 minutes
Method: We evaluated the effects of the TRPV1 modulator RTX alone and in combination with QX-314 on cardiovascular function, specifically heart rate and blood pressure, in pigs. Animals were first sedated with telazol (4-8 mg/kg, intramuscular), intubated, and mechanically ventilated. General anesthesia was maintained with isoflurane (1-2%, inhaled). A 12-lead surface electrocardiogram and arterial blood pressure were continuously obtained using a GE Healthcare CardioLab system. Local anesthesia with 1% lidocaine was then administered to the left sternocostal angle before making a small incision. Percutaneous access into the pericardial space was obtained using a Touhy needle under fluoroscopic guidance (see FIG. 1). Contrast was used to visualize the advancement of the needle tip, and intrapericardial access was confirmed by passing a wire through the needle and inducing cardiac ectopy. After confirming access, a sheath was introduced into the pericardial space over the wire. A 12.5 µg/mL RTX solution was prepared by first creating a stock solution of 0.1 mg/mL by dissolving 0.5 mg of RTX powder in 2.5 mL of dimethyl sulfoxide and 2.5 mL of 0.9% sodium chloride, and then diluting the stock solution to 12.5 µg/mL by adding 1.87 mL of it to 13.13 mL of 0.9% sodium chloride. […]

`C=C(C)[C@]12C[C@@H](C)[C@@]34O[C@](Cc5ccccc5)(O[C@@H]1[C@@H]3C=C(COC(=O)Cc1ccc(O)c(OC)c1)C[C@]1(O)C(=O)C(C)=C[C@@H]41)O2` [RTX, resiniferatoxin] was tested, and the “blood pressure change from baseline (FIG. 2B, FIG. 2C)” value was “significant increase” and the “heart rate change from baseline (FIG. 2A)” value was “significant increase”.

From patent US20230049330A1, “USE OF QX314 TO PREVENT SYMPATHO[…] ADMINISTRATION OF TRPV1 MODULATORS” (NEUCURES, INC., priority 2020, published 2023)
